assay: Inhibition of Bcr-Abl in mouse BA/F3 cells

Row | Structure (SMILES) | EC50
1 | Nc1cccc(-c2cc(Nc3ccc(OC(F)(F)F)cc3)ncn2)c1 [6-(3-aminophenyl)-N-(4-(trifluoromethoxy)phenyl)pyrimidin-4-amine] | 0.33 µM
2 | Cc1c(-c2cc(Nc3ccc(OC(F)(F)F)cc3)ncn2)cnn1-c1ccccc1 [6-(5-methyl-1-phenyl-1H-pyrazol-4-yl)-N-(4-(trifluoromethoxy)phenyl)pyrimidin-4-amine] | 0.81 µM
3 | FC(F)(F)Oc1ccc(Nc2cc(-c3ccncc3)ncn2)cc1 [6-(pyridin-4-yl)-N-(4-(trifluoromethoxy)phenyl)pyrimidin-4-amine] | 0.47 µM
4 | FC(F)(F)c1ccc(Nc2cc(-c3ccncc3)ncn2)cc1 [6-(pyridin-4-yl)-N-(4-(trifluoromethyl)phenyl)pyrimidin-4-amine] | 1.27 µM
5 | FC(F)(F)c1ccc(Nc2cc(-c3ccncc3)ncn2)cn1 [6-(pyridin-4-yl)-N-(6-(trifluoromethyl)pyridin-3-yl)pyrimidin-4-amine] | 1.24 µM
6 | FC(F)(F)Oc1ccc(Nc2cc(N3CCOCC3)ncn2)cc1 [6-morpholino-N-(4-(trifluoromethoxy)phenyl)pyrimidin-4-amine] | 1.8 µM
7 | FC(F)(F)Oc1ccc(Nc2ncnc3c2ccn3CCN2CCOCC2)cc1 [7-(2-morpholinoethyl)-N-(4-(trifluoromethoxy)phenyl)-7H-pyrrolo[2,3-d]pyrimidin-4-amine] | 0.38 µM
8 | Cn1ccc2c(Nc3ccc(OC(F)(F)F)cc3)ncnc21 [7-methyl-N-(4-(trifluoromethoxy)phenyl)-7H-pyrrolo[2,3-d]pyrimidin-4-amine] | 6.89 µM
9 | O=C(c1cc2c(Nc3ccc(OC(F)(F)F)cc3)ncnc2s1)N1CCC(O)CC1 [(4-hydroxypiperidin-1-yl)(4-(4-(trifluoromethoxy)phenylamino)thieno[2,3-d]pyrimidin-6-yl)methanone] | 1.96 µM
10 | CN1CCN(C(=O)c2cc3c(Nc4ccc(OC(F)(F)F)cc4)ncnc3s2)CC1 [(4-methylpiperazin-1-yl)(4-(4-(trifluoromethoxy)phenylamino)thieno[2,3-d]pyrimidin-6-yl)methanone] | 0.048 µM
11 | FC(F)(F)Oc1ccc(Nc2ncnc(NCCN3CCOCC3)n2)cc1 [N2-(2-morpholinoethyl)-N4-(4-(trifluoromethoxy)phenyl)-1,3,5-triazine-2,4-diamine] | > 10 µM
12 | FC(F)(F)Oc1ccc(Nc2ccnc(NCCN3CCOCC3)n2)cc1 [N2-(2-morpholinoethyl)-N4-(4-(trifluoromethoxy)phenyl)pyrimidine-2,4-diamine] | > 10 µM
13 | FC(F)(F)Oc1ccc(Nc2cncc(NCCN3CCOCC3)n2)cc1 [N2-(2-morpholinoethyl)-N6-(4-(trifluoromethoxy)phenyl)pyrazine-2,6-diamine] | > 10 µM
14 | FC(F)(F)Oc1ccc(Nc2ccc(NCCN3CCOCC3)nn2)cc1 [N3-(2-morpholinoethyl)-N6-(4-(trifluoromethoxy)phenyl)pyridazine-3,6-diamine] | > 10 µM
15 | FC(F)(F)Oc1ccc(Nc2nccc(NCCN3CCOCC3)n2)cc1 [N4-(2-morpholinoethyl)-N2-(4-(trifluoromethoxy)phenyl)pyrimidine-2,4-diamine] | > 10 µM

Next, values leading:

Row | EC50 | Structure (SMILES)
16 | > 10 µM | FC(F)(F)Oc1cccc(Nc2cc(NCCN3CCOCC3)ncn2)c1 [N4-(2-morpholinoethyl)-N6-(3-(trifluoromethoxy)phenyl)pyrimidine-4,6-diamine]
17 | > 10 µM | FC(F)(F)Oc1ccc(CNc2cc(NCCN3CCOCC3)ncn2)cc1 [N4-(2-morpholinoethyl)-N6-(4-(trifluoromethoxy)benzyl)pyrimidine-4,6-diamine]
18 | 0.72 µM | FC(F)(F)Oc1ccc(Nc2cc(NCCN3CCOCC3)ncn2)cc1 [N4-(2-morpholinoethyl)-N6-(4-(trifluoromethoxy)phenyl)pyrimidine-4,6-diamine]
19 | 0.92 µM | FC(F)(F)c1ccc(Nc2cc(NCCN3CCOCC3)ncn2)cc1 [N4-(2-morpholinoethyl)-N6-(4-(trifluoromethyl)phenyl)pyrimidine-4,6-diamine]
20 | 4.47 µM | FC(F)(F)Oc1ccc(Nc2cc(NCCCN3CCOCC3)ncn2)cc1 [N4-(3-morpholinopropyl)-N6-(4-(trifluoromethoxy)phenyl)pyrimidine-4,6-diamine]
21 | > 10 µM | COc1ccc(Nc2cc(NCCN3CCOCC3)ncn2)cc1 [N4-(4-methoxyphenyl)-N6-(2-morpholinoethyl)pyrimidine-4,6-diamine]
22 | > 10 µM | CN(c1ccc(OC(F)(F)F)cc1)c1cc(NCCN2CCOCC2)ncn1 [N4-methyl-N6-(2-morpholinoethyl)-N4-(4-(trifluoromethoxy)phenyl)pyrimidine-4,6-diamine]
23 | > 10 µM | O=C(NCCO)c1cc2c(Nc3ccc(OC(F)(F)F)cc3)ncnc2s1 [N-(2-Hydroxyethyl)-4-(4-(trifluoromethoxy)phenylamino)thieno[2,3-d]pyrimidine-6-carboxamide]
24 | 0.42 µM | O=C(NCCN1CCOCC1)c1cccc(-c2cc(Nc3ccc(OC(F)(F)F)cc3)ncn2)c1 [N-(2-morpholinoethyl)-3-(6-(4-(trifluoromethoxy)phenylamino)pyrimidin-4-yl)benzamide]
25 | > 10 µM | FC(F)(F)Oc1ccc(Oc2cc(NCCN3CCOCC3)ncn2)cc1 [N-(2-morpholinoethyl)-6-(4-(trifluoromethoxy)phenoxy)pyrimidin-4-amine]
26 | > 10 µM | FC(F)(F)Oc1ccc(-c2cc(NCCN3CCOCC3)ncn2)cc1 [N-(2-morpholinoethyl)-6-(4-(trifluoromethoxy)phenyl)pyrimidin-4-amine]
27 | 0.04 µM | CS(=O)(=O)Nc1ccc(-c2cc(Nc3ccc(OC(F)(F)F)cc3)ncn2)cc1 [N-(4-(6-(4-(trifluoromethoxy)phenylamino)pyrimidin-4-yl)phenyl)methanesulfonamide]
28 | > 10 µM | FC(F)(F)Oc1ccc(Nc2ncnc3[nH]ccc23)cc1 [N-(4-(Trifluoromethoxy)phenyl)-7H-pyrrolo[2,3-d]pyrimidin-4-amine]
29 | 1.3 µM | FC(F)(F)Oc1ccc(Nc2ncnc3n[nH]cc23)cc1 [N-(4-(trifluoromethoxy)phenyl)-1H-pyrazolo[3,4-d]pyrimidin-4-amine]
30 | 0.15 µM | Cc1nn(C)c(C)c1-c1cc(Nc2ccc(OC(F)(F)F)cc2)ncn1 [N-(4-(trifluoromethoxy)phenyl)-6-(1,3,5-trimethyl-1H-pyrazol-4-yl)pyrimidin-4-amine]
31 | > 10 µM | Fc1ccc(Nc2cc(-c3ccncc3)ncn2)cc1 [N-(4-fluorophenyl)-6-(pyridin-4-yl)pyrimidin-4-amine]
32 | > 10 µM | COc1ccc(Nc2cc(-c3ccncc3)ncn2)cc1 [N-(4-methoxyphenyl)-6-(pyridin-4-yl)pyrimidin-4-amine]
33 | 0.918 µM | CCNC(=O)c1cc2c(Nc3ccc(OC(F)(F)F)cc3)ncnc2s1 [N-ethyl-4-(4-(trifluoromethoxy)phenylamino)thieno[2,3-d]pyrimidine-6-carboxamide]
34 | 0.34 µM | CNC(=O)c1cccc(-c2cc(Nc3ccc(OC(F)(F)F)cc3)ncn2)c1 [N-methyl-3-(6-(4-(trifluoromethoxy)phenylamino)pyrimidin-4-yl)benzamide]
35 | > 10 µM | CN(c1ccc(OC(F)(F)F)cc1)c1cc(-c2ccncc2)ncn1 [N-methyl-6-(pyridin-4-yl)-N-(4-(trifluoromethoxy)phenyl)pyrimidin-4-amine]
36 | 5.6 µM | COC(=O)c1cc2c(Nc3ccc(OC(F)(F)F)cc3)ncnc2s1 [methyl 4-(4-(trifluoromethoxy)phenylamino)thieno[2,3-d]pyrimidine-6-carboxylateMethyl 4-(4-(Trifluoromethoxy)-phenylamino)thieno[2,3-d]pyrimidine-6-carboxylate]
37 | 0.24 µM | O=C(c1cccc(-c2cc(Nc3ccc(OC(F)(F)F)cc3)ncn2)c1)N1CCOCC1 [morpholino(3-(6-(4-(trifluoromethoxy)phenylamino)pyrimidin-4-yl)phenyl)methanone]

Source: BindingDB's records for doi:10.1021/jm100555f (Harvard Medical School, 2010)
